Test results reported in patent publication US20260226092A1, “COCRYSTALS OF CORTEXOLONE 17-PROPIONATE AND METHODS FOR THEIR PREPARATION” (Farmabios S.p.A., priority 2023, published 2026).
Converted amounts (≈) assume the structure as drawn. Like-named read-outs stand apart in the source and are kept apart here.

How the values were obtained:
[1] = Wettability analysis (contact angle, ultrapure water); assay type: physicochemical; conditions: room temperature
Protocol: Wettability analysis has been carried out by a contact angle meter (Kyowa Interface Science, made in Japan, model: DMe-211Plus) with FAMAS software for data processing.
The contact angle of cocrystals (Form J and G) and Form III (reference) was evaluated at room temperature using ultrapure water (by MilliQ system). Cocrystals (Form J and G) and Form III were previously grounded with a mortar and pestle to limit the effect of particle sizes. Then, approximately 27 mg of each sample were collected on a glass substrate limited to a Teflon O-ring (6.0 mm diameter) and gently leveled by a spatula. The contact time between the drop and sample was set at 9 s and the aqueous falling volume was 2.0 μl.

[2] = Kinetic solubility study in aqueous buffers (HPLC of mother liquors); assay type: physicochemical; conditions: for solubility at 30 min: aqueous buffer, thermodynamic from solid, read-out: highest solubility; for Conc 1st duplicate / Conc 2nd duplicate / Conc Average: room temperature
Protocol: Each sample was analyzed in duplicate. Cocrystals form J and G as well as the crystalline form III were previously grounded with mortar and pestle to reduce the particle size effects. […] At scheduled timing (0.5 h, 1 h, 3 h, 5 h, 24 h), aliquots of approximately 3 ml were withdrawn and filtered. Mother liquors were analyzed in triplicate by HPLC, and their pH values checked by pH me[…]/conductometer, Methron).

Wettability character (hydrophilic: contact angle <90 degrees; hydrophobic: >90 degrees) [1]: hydrophilic
Contact angle Sample 1 ([1]; 2.0 μl drop, contact time 9 s): 76.8 degrees
Contact angle Sample 2 ([1]; 2.0 μl drop, contact time 9 s): 75.0 degrees
Contact angle Sample 3 ([1]; 2.0 μl drop, contact time 9 s): 81.2 degrees
Contact angle Average ([1]; average of samples 1-3): 77.67 degrees
solubility at 30 min ([2]; acetate buffer, pH 5.1, room temperature, maximum over 0.5-24 h (Form J and G after 1 h, Form III after 30 min)): 18.07 ± 0.06 µg/mL (≈ 44.9 µM)
dissolution (in words) ([2]; pH 5.1, room temperature): faster than the one at pH 6.0
Conc 1st duplicate ([2]; pH 5.1 buffer, 30 min): 18070 ng/mL
Conc 2nd duplicate ([2]; pH 5.1 buffer, 30 min): 18120 ng/mL
Conc Average ([2]; pH 5.1 buffer, 30 min): 18070 ng/mL
Conc 1st duplicate ([2]; pH 5.1 buffer, 1 h): 10020 ng/mL
Conc 2nd duplicate ([2]; pH 5.1 buffer, 1 h): 10000 ng/mL
Conc Average ([2]; pH 5.1 buffer, 1 h): 10010 ng/mL
Conc 1st duplicate ([2]; pH 5.1 buffer, 3 h): 16960 ng/mL
Conc 2nd duplicate ([2]; pH 5.1 buffer, 3 h): 16820 ng/mL
Conc Average ([2]; pH 5.1 buffer, 3 h): 16890 ng/mL
Conc 1st duplicate ([2]; pH 5.1 buffer, 5 h): 14680 ng/mL
Conc 2nd duplicate ([2]; pH 5.1 buffer, 5 h): 15020 ng/mL
Conc Average ([2]; pH 5.1 buffer, 5 h): 14770 ng/mL
Conc 1st duplicate ([2]; pH 5.1 buffer, 24 h): 2590 ng/mL
Conc 2nd duplicate ([2]; pH 5.1 buffer, 24 h): 2600 ng/mL
Conc Average ([2]; pH 5.1 buffer, 24 h): 2600 ng/mL
Conc 1st duplicate ([2]; pH 6.0 buffer, 30 min): 4380 ng/mL
Conc 2nd duplicate ([2]; pH 6.0 buffer, 30 min): 4370 ng/mL
Conc Average ([2]; pH 6.0 buffer, 30 min): 4380 ng/mL
Conc 1st duplicate ([2]; pH 6.0 buffer, 1 h): 3580 ng/mL
Conc 2nd duplicate ([2]; pH 6.0 buffer, 1 h): 3560 ng/mL
Conc Average ([2]; pH 6.0 buffer, 1 h): 3570 ng/mL
Conc 1st duplicate ([2]; pH 6.0 buffer, 3 h): 11150 ng/mL
Conc 2nd duplicate ([2]; pH 6.0 buffer, 3 h): 10970 ng/mL
Conc Average ([2]; pH 6.0 buffer, 3 h): 11060 ng/mL
Conc 1st duplicate ([2]; pH 6.0 buffer, 5 h): 1920 ng/mL
Conc 2nd duplicate ([2]; pH 6.0 buffer, 5 h): 1920 ng/mL
Conc Average ([2]; pH 6.0 buffer, 5 h): 1920 ng/mL
Conc 1st duplicate ([2]; pH 6.0 buffer, 24 h): 4020 ng/mL
Conc 2nd duplicate ([2]; pH 6.0 buffer, 24 h): 4030 ng/mL
Conc Average ([2]; pH 6.0 buffer, 24 h): 4020 ng/mL
solubility at 30 min ([2]; phosphate buffer, pH 6.0, room temperature, maximum over 0.5-24 h (Form J and Form III 30 min, Form G after 1 h)): 15.97 ± 0.04 µg/mL (≈ 39.7 µM)
SMILES: CCC(=O)O[C@]1(C(=O)CO)CC[C@H]2[C@@H]3CCC4=CC(=O)CC[C@]4(C)[C@H]3CC[C@@]21C [Form III, cortexolone 17α-propionate]
